Source: patent US20140235776A1, “AMINOALCOHOL COMPOUNDS AND THEIR USE AS ZERO OR LOW VOC ADDITIVES FOR PAINTS AND COATINGS” (ANGUS CHEMICAL COMPANY, priority 2011, published 2014)
Like-named read-outs stand apart in the source and are kept apart here.

Legend:
Format in all cases: physicochemical
[1] = Freeze-thaw cycles of paint samples, viscosity by Krebs Stormer Viscometer; settings: for freeze-thaw survival of paint sample (in words): added as post-add, 2 wt %; for Viscosity after Freeze-Thaw cycles (KU), 2nd cycle / Viscosity after Freeze-Thaw cycles (KU), 3rd cycle / Viscosity after Freeze-Thaw cycles (KU), 4th cycle / Viscosity after Freeze-Thaw cycles (KU), 5th cycle / Viscosity after Freeze-Thaw cycles (KU), 1st cycle: additive 2 wt %; for Initial Viscosity (KU): additive 2 wt % post-add in paint of Table 8, before freeze-thaw; for Viscosity after Freeze-Thaw cycles (KU), 1st cycle: cycle = −18° C. 17 hours, 25° C. 7 hours
Procedure: Preparation of paint formulations containing compounds of the invention: The paint formulations are prepared using F/T agent 1 and 2 as shown by structures below. The octanol water partition coefficients are calculated for these compounds using the method of Moriguchi et al., Chem. Pharm. Bull. 40(1), 127-130 (1992). The calculated octanol-water partition coefficients for F/T-1 and F/T-2 are −2.59, and −3.99, respectively. […] Paint samples are frozen at −18° C. for 17 hours and then thawed at 25° C. for 7 hours. This constitutes 1 complete freeze-thaw cycle. Viscosities are measured after each freeze-thaw cycle using a Krebs Stormer Viscometer from Sheen at room temperature. The viscosity is measured in Krebs unit (KU). The results of freeze-thaw cycles on paint samples that contain zero-VOC compounds of the invention as post-adds are listed in the Table 9. The post-add compounds are mixed at 2 wt % in the paint samples. The same paint formulation is used in preparing all the samples. The paint sample without any post-add is designated as “Blank.”
The KU values below 150 as reported in Table 9 are considered acceptable, and all the values (other than that for the Blank) reported are considered very acceptable.

[2] = pH of paint formulation (digital pH meter); settings: for pH: Zero VOC Flat Formulation, vinyl acrylic latex; for pH, 1 day 25° C.: Zero VOC Semi Gloss Formulation, acrylic latex
Procedure: pH, Low Shear and High Shear Viscosity.
The pH of each formulation is measured with a digital pH meter with a glass combination pH probe. Krebs-units (KU) viscosity is measured with Brookfield model KU viscometer with digital display (ASTM D562), at 25° C.

[3] = High shear (ICI) viscosity of paint, ASTM D 4287; settings: in P (unit assumed)
Procedure: (§1) The pH of each formulation is measured with a digital pH meter with a glass combination pH probe. Krebs-units (KU) viscosity is measured with Brookfield model KU viscometer with digital display (ASTM D562), at 25° C. The high shear (“ICI”) viscosity is measured according to ASTM D 4287 using a Brookfield CAP 1000+ viscometer at a shear rate of 12,000 s^−1 at 900 rpm, with a 0.45° cone of radius 1.511 cm, and a sample temperature controlled at 25° C.

[4] = Krebs-units (KU) low shear viscosity of paint, ASTM D562
Procedure: as §1

[5] = VOC testing according to ASTM D6886-rev (gas chromatography); settings: neutralizer in a finished paint formulation, GC conditions of Table 2
Procedure: VOC properties are tested according to the ASTM D6886-rev method.

[6] = pKa of neutralizing amines
[7] = Zero VOC Semi Gloss Formulation
[8] = read-out: pKa (first value, pK1)
[9] = read-out: pKa (second value, pK2)

Structure (SMILES)	Viscosity after Freeze-Thaw cycles (KU), 2nd cycle [1] [KU]	Viscosity after Freeze-Thaw cycles (KU), 3rd cycle [1] [KU]	Viscosity after Freeze-Thaw cycles (KU), 4th cycle [1] [KU]	Viscosity after Freeze-Thaw cycles (KU), 5th cycle [1] [KU]	Initial Viscosity (KU) [1] [KU]	Viscosity after Freeze-Thaw cycles (KU), 1st cycle [1] [KU]	VOC contributed by neutralizers [5] [%^2]	pKa [6, 8]	pKa [6, 9]	also measured
OCC(O)CNCCN(CCNCC(O)CO)CC(O)CO (centres unmarked) [F/T Agent 1, 3,3′-((((2,3-dihydroxypropyl)azanediyl)bis(ethane-2,1-diyl))bis(azanediyl))bis(propane-1,2-diol)]	111.1	112.7	111.8	109.5	89.5	108	–	–	–	freeze-thaw survival of paint sample (in words) [1]: survive five freeze-thaw cycles
[Na+].[OH-] [NaOH, sodium hydroxide, reference compound]	–	–	–	–	–	–	–	–	–	pH [2]: 8.56; pH, 1 day 25° C. [2]: 9.47; ICI Viscosity, 1 day 25° C. ([3]; Zero VOC Flat Formulation): 1.184; ICI Viscosity, 1 day 25° C. [3, 7]: 1.059; KU Viscosity, 1 day 25° C. ([4]; Zero VOC Flat Formulation): 86 KU; KU Viscosity, 1 day 25° C. [4, 7]: 89.1 KU
CC(O)CO (centres unmarked) [Propylene Glycol, propylene glycol, reference compound]	103.2	115.1	99.4	98.2	89.8	101.3	–	–	–	–
OCC(O)CNCCN(CCNCC(O)CO)CC(O)CO (centres unmarked) [DETA Glyc, 3,3′-((((2,3-dihydroxypropyl)azanediyl)bis(ethane-2,1-diyl))bis(azanediyl))bis(propane-1,2-diol)]	–	–	–	–	–	–	0	8.9	4.6	–
CC(O)CNCCNCCN(CCNCC(C)O)CC(C)O (centres unmarked) [TETA 3PO, 7-(2-hydroxypropyl)-4,7,10,13-tetraazahexadecane-2,15-diol]	–	–	–	–	–	–	–	–	–	pH [2]: 8.51; pH, 1 day 25° C. [2]: 9.46; ICI Viscosity, 1 day 25° C. ([3]; Zero VOC Flat Formulation): 1.29; ICI Viscosity, 1 day 25° C. [3, 7]: 1.018; KU Viscosity, 1 day 25° C. ([4]; Zero VOC Flat Formulation): 92.8 KU; KU Viscosity, 1 day 25° C. [4, 7]: 85.9 KU
CC(O)CNCCN(CCNCCN(CCNCC(C)O)CC(C)O)CC(C)O (centres unmarked) [TEPA 4PO, 7,13-bis(2-hydroxypropyl)-4,7,10,13,16-pentaazanonadecane-2,18-diol]	–	–	–	–	–	–	0	8.7	4.8	–
CC(C)(N)CNCCOCCOCCNCC(C)(C)N [EDBDA bis-AMP, N1,N1′-((ethane-1,2-diylbis(oxy))bis(ethane-2,1-diyl))bis(2-methylpropane-1,2-diamine), reference compound]	–	–	–	–	–	–	0	9.7	5.8	–
OCCOCCO [Diethylene Glycol, diethylene glycol, reference compound]	105.1	106.9	100.6	98	91.0	101.1	–	–	–	–
OCC(O)CN(CCN(CC(O)CO)CC(O)CO)CCN(CC(O)CO)CC(O)CO (centres unmarked) [F/T Agent 2, 3,3′,3″,3′′′-((((2,3-dihydroxypropyl)azanediyl)bis(ethane-2,1-diyl))bis(azanetriyl))tetrakis(propane-1,2-diol)]	113.1	114	121.7	116.3	88.2	110.4	–	–	–	freeze-thaw survival of paint sample (in words) [1]: survive five freeze-thaw cycles
